The values that follow are results of earlier work, collected in US20190231795A1, “METHODS FOR TREATING CANCER AND PREDICTING DRUG RESPONSIVENESS IN CANCER PATIENTS” (LiPlasome Pharma ApS, priority 2018, published 2019).

Data set [1] relates to DNA platinum adducts (GG-Pt) in tumor tissue. As to conditions: comparison value.

Take `N.N.[Cl][Pt][Cl]` [conventional cisplatin, cisplatin]: the response rate with metastatic breast cancer is on record as 10%. For the same compound, in data set [1], the “increase of DNA-platinum (GG-Pt) in tumor tissue seen with conventional cisplatin” value was 4-6 fold.
